Experimental data as given in publication PMC8217011, “Natural brominated phenoxyphenols kill persistent and biofilm-incorporated cells of MRSA and other pathogenic bacteria” (Applied Microbiology and Biotechnology, 2020).
“And” between values parts separate entries of the source, which are not always exact repeats. Equal entries are not always repeated.

Legend:
[1] = system: MRSA strain containing pLA03::tetR; assay: MIC in recombinant strain, tetR overexpression; assay type: cell-based, Staphylococcus aureus; settings: for MIC: Staphylococcus aureus, MRSA
Method: (§1) To corroborate the role as potential determinants of resistance, mtlA and tetR were overexpressed under control of an anhydrotetracycline (Atc)-inducible promoter, and the effect on sensitivity toward 3-bromo-PP was analysed (Fig. 4e). […] However, induction of mtlA or tetR expression in the presence of Atc strongly rendered the cells more susceptible to 3-bromo-PP resulting in MICs of 0.019 μM for mtlA and 0.078 μM for tetR overexpression, respectively. This translates into a […] and 8-fold increased sensitivity during mtlA or tetR overexpression, respectively, compared with the empty vector control (Fig. 4e).

[2] = system: MRSA strain containing pLA03::mtlA; assay: MIC in recombinant strain, mtlA overexpression; assay type: cell-based, Staphylococcus aureus; settings: for MIC: Staphylococcus aureus, MRSA
Method: as §1

S. aureus TCH1516 = assay: MIC determination (microbroth dilution); assay type: cell-based; settings: Staphylococcus aureus
Method: (§2) Cultures were, if not stated differently, incubated at 37 °C with aeration and shaking (150 rpm) in Mueller-Hinton broth (MHB). Bacteria were freshly incubated at the next morning from an overnight pre-culture for actively growing bacteria to an OD600 nm of approx. 0.6. To ensure persistent growth form, the bacteria were grown overnight until a density at OD600 nm > 5.0 was obtained. For biofilm growth, some colonies from a Mueller-Hinton agar (MHA) plate were picked and resuspended in MHB. Cell density has been adjusted to OD600 nm = 0.8, and cells were sown into a flat-bottom 96-well plate to be incubated statically at 37 °C with aeration. Studies were mainly performed with S. aureus Mu50.
(§3) The minimal inhibitory concentration (MIC) has been determined according to the CSLI guidelines (CLSI [2012]). Briefly, in a sterile polystyrene U-bottom 96-well plate, a 2-fold serial dilution ranging from 100 to 0.78 μM of testing compounds has been prepared in 50 μL MHB. A freshly inoculated S. aureus culture was grown until OD600 nm of approx. 0.6 and diluted to 10^6 CFU/mL in MHB. Finally, 50 μL of the latter cell suspension was added to each well and then incubated statically for 18–24 h at 37 °C. MIC was determined using BacTiterGlo ATP assay (Promega, Madison, WI, USA) and Tecan Infinite F200 Pro (Tecan, Männedorf, Switzerland). Moxifloxacin and DMSO were used as positive and negative control, respectively. Sublethal concentrations of colistin (0.1 μM) were used in some experiments to increase the permeability of the gram-negative cell envelope for compound testing. For E. cloacae, a broth microdilution assay was performed using a serial 2-fold dilution in 96-well flat-bottomed plates (Falcon, BD Bioscience, Heidelberg) of both PPs in broth LB medium (Roth, Karlsruhe) at a concentration range of 50–0.024 μM.

S. aureus Mu50 = assay: MIC determination (microbroth dilution); assay type: cell-based; settings: Staphylococcus aureus
Method: as §2, §3

S. aureus COL = assay: MIC determination (microbroth dilution); assay type: cell-based; settings: Staphylococcus aureus
Method: as §2, §3

E. faecalis ATCC 29212 = assay: MIC determination (microbroth dilution); assay type: cell-based; settings: Enterococcus faecalis, ATCC29212
Method: as §2, §3

[3] = system: Staphylococcus aureus strain ATCC 25923; assay: MIC determination (microbroth dilution); assay type: cell-based; settings: ATCC25923
Method: as §2, §3

A. baumannii ATCC 1605 = assay: MIC determination (microbroth dilution); assay type: cell-based; settings: Acinetobacter baumannii, ATCC1605, multidrug-resistant strain
Method: as §2, §3

[4] = system: Klebsiella pneumoniae ATCC 700603; assay: MIC determination (microbroth dilution); assay type: cell-based; settings: ATCC700603
Method: as §2, §3

[5] = system: S. aureus mutant M1 (parental strain ATCC 25923); assay: MIC of spontaneously resistant mutant; assay type: cell-based, Staphylococcus aureus; settings: for MIC90: Staphylococcus aureus, ATCC25923
Method: as §3
(§4) Spontaneous resistant mutants have been generated with 2-bromo-PP and 3-bromo-PP to further investigate the mechanism of antibacterial action and resistance. Since isolation of spontaneous resistant mutants in one step was not successful on solid media containing 2-bromo-PP or 3-bromo-PP (i.e. resistance frequency < 10^−7 at 5-fold MIC), enrichment was done by passaging bacteria daily in liquid media containing increasing sublethal concentrations of PPs. […] Moreover, we observed cross-resistance between PPs since 2-bromo-PP-resistant mutants were also resistant against 3-bromo-PP and vice versa (Fig. 4a; Table 2).

[6] = system: S. aureus mutant M4 (parental strain Mu50); assay: MIC of spontaneously resistant mutant; assay type: cell-based, Staphylococcus aureus; settings: for MIC90: Staphylococcus aureus
Method: as §3, §4

preformed MRSA biofilms = assay: Biofilm integrity (crystal violet staining, Alcian blue fluorescence microscopy); assay type: cell-based, Staphylococcus aureus
Method: Viability was measured as described above utilizing the Resazurin reduction assay. Biofilm formation was measured using crystal violet staining as described elsewhere (Christensen et al. [1985]; Stepanovic et al. [2007]). Briefly, biofilms were washed three times with PBS and allowed to air dry before 0.1% (v/v) crystal violet solution (Waldeck GmbH & Co., Münster, Germany) was added to each well. The biofilms were stained for 15 min at room temperature (RT). Afterwards, the plates were washed three times again with PBS, and 30% acetic acid was added for 30 min at RT to solubilise the dye. Finally, 100 μL was transferred to a fresh 96-well plate to measure absorption at 600 nm with a plate reader.
Biofilms were pre-grown as described above. Alcian blue staining was performed to stain the EPS. A 1% Alcian blue staining solution was prepared in 3% glacial acetic acid. Staining solution was added to the biofilm in sufficient amount to cover the whole biofilm and incubated for 30 min at RT. Next, the biofilm was washed twice with PBS, and 200 μL 10% formalin solution was added. Fluorescence microscopy was performed using a Nikon Eclipse TS100 fluorescence microscope.

[7] = system: stationary phase-induced persistent cells of MRSA strain Mu50; assay: Persister killing kinetics (CFU plating); assay type: cell-based, Staphylococcus aureus; settings: start 10^8 CFU/mL
Method: For persister killing kinetics, cells were grown overnight until a density of OD600 nm > 5.0 was reached and then washed three times with PBS. Next, cell density was adjusted to 10^8 CFU/mL in 5 mL PBS. […] Analysis was performed as described above.

[8] = induced with Atc (1 μg/mL anhydrotetracycline)

Oc1c(Br)cc(Br)c(Br)c1Oc1ccc(Br)cc1Br [3-bromo-PP, 3,4,6-tribromo-2-(2′,4′-dibromophenoxy)phenol]
MIC [1, 8]: 0.078 µM | MIC ([1]; non-induced): 0.312 µM | increased sensitivity compared with the empty vector control ([1]; tetR overexpression): 8 fold | MIC [2, 8]: 0.019 µM | MIC ([2]; non-induced): 0.312 µM | increased sensitivity compared with the empty vector control ([2]; mtlA overexpression): 33 fold | MIC90 (S. aureus TCH1516): 0.78 µM and 0.45 µg/mL | MIC90 (S. aureus Mu50): 0.1 µM and 0.06 µg/mL | MIC90 (S. aureus COL): 0.78 µM and 0.45 µg/mL | MIC90 (E. faecalis ATCC 29212): 0.78 µM and 0.45 µg/mL | MIC90 [3]: 0.78 µM and 0.45 µg/mL | MIC90 (A. baumannii ATCC 1605; + 0.1 μM colistin): 0.78 µM and 0.45 µg/mL | MIC90 (A. baumannii ATCC 1605; without colistin): 1.56 µM and 0.91 µg/mL | MIC90 [4]: 3.12 µM and 1.81 µg/mL | MIC90 [5]: 3.12 µM and 1.81 µg/mL | MIC shift against 3-bromo-PP ([5]; mutant M1 raised against 2-bromo-PP, vs parental strain): 4 × | MIC90 [6]: 3.12 µM and 1.81 µg/mL | MIC shift against 3-bromo-PP ([6]; mutant M4 raised against 3-bromo-PP, vs parental strain Mu50): 32 × | biofilm integrity / dispersal (preformed MRSA biofilms): Neither 2-bromo-PP (light blue triangle) nor 3-bromo-PP (blue inverted triangle) disperse biofilms | decrease of viability of persistent cells after 24 h ([7]; 3-bromo-PP at 4× MIC, moxifloxacin control, 24 h): 2 logs

Oc1c(Br)cc(Br)cc1Oc1ccc(Br)cc1Br [2-bromo-PP, 4,6-dibromo-2-(2′,4′-dibromophenoxy)phenol]
MIC90 (S. aureus TCH1516): 0.78 µM and 0.39 µg/mL | MIC90 (S. aureus Mu50): 0.19 µM and 0.1 µg/mL | MIC90 (S. aureus COL): 0.78 µM and 0.39 µg/mL | MIC90 (E. faecalis ATCC 29212): 0.78 µM and 0.39 µg/mL | MIC90 [3]: 0.39 µM and 0.2 µg/mL | MIC90 (A. baumannii ATCC 1605; + 0.1 μM colistin): 0.39 µM and 0.2 µg/mL | MIC90 (A. baumannii ATCC 1605; without colistin): 0.78 µM and 0.39 µg/mL | MIC90 [4]: 1.56 µM and 0.78 µg/mL | MIC90 [5]: 1.56 µM and 0.78 µg/mL | MIC90 [6]: 1.56 µM and 0.78 µg/mL | biofilm integrity / dispersal (preformed MRSA biofilms): Neither 2-bromo-PP (light blue triangle) nor 3-bromo-PP (blue inverted triangle) disperse biofilms | time until viability reduced to the detection limit ([7]; PPs at 4× MIC, NH125 10 μM, detection limit 10^2 CFU/mL): 8 h
